Reference: ChEMBL document CHEMBL1146629, “Synthesis and evaluation of phosphoramidate amino acid-based inhibitors of sialyltransferases” (Bioorg Med Chem Lett, 2003)

Legend:
[1] = biological target: T1, CMP-N-acetylneuraminate-beta-1,4-galactoside alpha-2,3-sialyltransferase (Rattus norvegicus, UniProt Q02734); test: Inhibitory activity evaluated against alpha-2,3-sialyltransferase from rat liver
T1 sequence (Q02734 whole entry): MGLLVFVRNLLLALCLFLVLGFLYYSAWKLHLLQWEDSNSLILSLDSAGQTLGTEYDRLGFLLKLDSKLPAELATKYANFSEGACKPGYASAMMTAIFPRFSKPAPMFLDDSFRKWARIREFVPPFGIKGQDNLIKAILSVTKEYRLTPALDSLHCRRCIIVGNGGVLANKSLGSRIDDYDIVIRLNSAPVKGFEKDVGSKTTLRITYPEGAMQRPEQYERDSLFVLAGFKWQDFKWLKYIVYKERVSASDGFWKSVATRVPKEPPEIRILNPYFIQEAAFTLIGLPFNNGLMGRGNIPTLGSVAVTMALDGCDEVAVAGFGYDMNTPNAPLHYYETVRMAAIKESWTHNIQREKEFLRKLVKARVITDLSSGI

[2] = biological target: T2, Beta-galactoside alpha-2,6-sialyltransferase 1 (Rattus norvegicus, UniProt P13721); test: Inhibitory activity evaluated against alpha-2,6-sialyltransferase from rat liver
T2 sequence (P13721 whole entry): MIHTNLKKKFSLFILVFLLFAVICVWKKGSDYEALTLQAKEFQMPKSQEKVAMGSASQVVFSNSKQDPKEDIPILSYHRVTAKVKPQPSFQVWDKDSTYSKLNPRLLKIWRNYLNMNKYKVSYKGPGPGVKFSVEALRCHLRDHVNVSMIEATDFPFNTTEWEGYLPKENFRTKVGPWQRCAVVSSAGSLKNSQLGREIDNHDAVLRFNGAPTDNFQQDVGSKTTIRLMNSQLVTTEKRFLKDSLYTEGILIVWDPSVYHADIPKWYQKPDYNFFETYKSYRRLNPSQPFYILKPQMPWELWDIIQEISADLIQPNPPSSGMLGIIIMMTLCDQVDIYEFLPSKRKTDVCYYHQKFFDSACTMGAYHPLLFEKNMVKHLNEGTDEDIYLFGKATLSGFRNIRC

Row | Structure (SMILES) | Ki [1] [µM] | Ki [2] [µM]
1 | Nc1ccn([C@@H]2O[C@H](COP(=O)(O)O)[C@@H](O)[C@H]2O)c(=O)n1 | 65 | 64
2 | CC(C)C[C@H](NP(=O)(O)OC[C@H]1OC(n2ccc(N)nc2=O)[C@H](O)C1O)C(=O)O (single isomer, unassigned) | 900 | 2500
3 | Nc1ccn(C2O[C@H](COP(=O)(O)N[C@@H](CC(=O)O)C(=O)O)C(O)[C@H]2O)c(=O)n1 (single isomer, unassigned) | 5100 | 2200
4 | Nc1ccn(C2O[C@H](COP(=O)(O)NCC(=O)O)C(O)[C@H]2O)c(=O)n1 (single isomer, unassigned) | 5300 | 2400

The remaining lines, values ahead:

Row | Ki [1] [µM] | Ki [2] [µM] | Structure (SMILES)
5 | 710 | 370 | Nc1ccn(C2O[C@H](COP(=O)(O)OCC(=O)O)C(O)[C@H]2O)c(=O)n1 (single isomer, unassigned)
6 | 2300 | 3800 | Nc1ccn(C2O[C@H](COP(=O)(O)N[C@@H](Cc3ccccc3)C(=O)O)C(O)[C@H]2O)c(=O)n1 (single isomer, unassigned)
7 | 2300 | 1700 | C[C@H](NP(=O)(O)OC[C@H]1OC(n2ccc(N)nc2=O)[C@H](O)C1O)C(=O)O (single isomer, unassigned)
8 | 300 | 730 | Nc1ccn(C2O[C@H](COP(=O)(O)N[C@@H](Cc3c[nH]c4ccccc34)C(=O)O)C(O)[C@H]2O)c(=O)n1 (single isomer, unassigned)
